Measured values reported in publication PMC8708390, “Fatty Acid Modification of the Anticancer Peptide LVTX-9 to Enhance Its Cytotoxicity against Malignant Melanoma Cells” (Toxins, 2021).
Where a SMILES comes first, the peptide text is derived from it. The star is where a group is joined. Arachidoyl = CCCCCCCCCCCCCCCCCCCC(=O)*; Stearoyl = CCCCCCCCCCCCCCCCCC(=O)*; Palmitoyl = CCCCCCCCCCCCCCCC(=O)*; Myristoyl = CCCCCCCCCCCCCC(=O)*; Lauroyl = CCCCCCCCCCCC(=O)*

Key:
[1] = RP-HPLC retention time as measure of hydrophobicity; format: physicochemical; details: chromatographic, Vydac C18 300 Å 4.6 × 250 mm, 1.0 mL/min, gradient 30-100% acetonitrile/0.1% TFA, 215 nm, column 25 ± 5 °C; maximum height of peak
Method: Peptides were synthesized using the Fmoc SPPS methods. Briefly, the peptide LVTX-9 (AC-[…]-amide) was prepared on Rink Amide AM resin at a 0.2 mmol scale. A 4-fold excess of the Fmoc-protected amino acids was coupled with the Rink Amide AM resin using HCTU and HOBT as the activating agents in 5% NMM/DMF. After the synthesis of LVTX-9, the N-terminal Fmoc group was removed using 20% piperidine. As in the previous steps, a series of fatty acids (C12-C20) was activated in HCTU and HOBT using 5% NMM/DMF, and coupled to peptidyl resin for 2 h. Peptides were cleaved using trifluoroacetic acid (TFA)/thioanisole (TIS)/anisole (95:3:2 (v/v)) for 2.5 h, and the collected lysate was precipitated in cold diethyl ether three times. The precipitate was air-dried naturally. Next, the obtained crude products were purified using RP-HPLC (C18, 4.6 mm × 250 mm) on the basis of a 0.1% TFA/acetonitrile gradient from 30% to 100% in 46 min. Then, we collected the eluted peptides and determined the molecular mass using MALDI-TOF MS (AB, SCIEX, Waltham, MA, USA).
Figure 2 Purification and identification of five lipopeptides using RP-HPLC and MALDL-TOF MS: The purification of (A) LVTX-9-C12, (B) LVTX-9-C14, (C) LVTX-9-C16, (D) LVTX-9-C18, and (E) LVTX-9-C20 was performed using RP-HPLC (column, Vydac, C18, 300 Å, 4.6 × 250 mm). The lipopeptides were separated at a flow rate of 1.0 mL/min under a gradient of 30–100% acetonitrile/0.1% TFA. The elution of lipopeptides was monitored at 215 nm. Identification of (F) LVTX-9-C12, (G) LVTX-9-C14, (H) LVTX-9-C16, (I) LVTX-9-C18, and (J) LVTX-9-C20 by MALDI-TOF MS, respectively. The red star (*) represents the target peak. […]
Table S1. Purification gradient of peptides.
Time (min) Flow Rate (mL/min) A% B%
Wavelength: 215 nm/280 nm, column temperature: 25 ± 5 ℃, A: ddH2O (0.1% TFA), B: acetonitrile
(1 picture or pasted object on this page, not shown here)

B16-F10 tumor spheroids = test: Toxicity in 3D tumor spheroids; format: cell-based, mouse; details: 20 μM, 3 days
Method: To further study the toxicity of LVTX-9 and LVTX-9-C18 in vitro, B16-F10 tumor spheroids, as 3D tumor models, were cultured according to protocols in the literature. Briefly, B16-F10 cells were seeded into an ultra-low attachment, 96-well, round-bottom plate (Corning) and cultured at 37 °C for 3–4 days. Then, the B16-F10 tumor spheroids were treated with 50 or 25 μM of LVTX-9 and 20 or 10 μM of LVTX-9-C18 in the RPMI-1640 supplied with 10% serum for 3 days. Subsequently, images were taken on days 0 and 3, and the cell viability was measured using a CellTiter-Glo 3D Cell Viability Assay (G9683).

B16-F10 cells [2] = test: Trypan blue staining; format: cell-based, mouse; details: 5 μM, 24 h, 0.04% trypan blue 4 min
Method: B16-F10 cells were seeded into a 48-well plate (2 × 10^3 cells/well) for 24 h and treated with LVTX-9 (50 μM) and LVTX-9-C18 (5 μM) for 24 h. The cells were washed with PBS gently and stained with 0.04% Trypan blue for 4 min. Dead cells were stained blue.

[3] = Dynamic light scattering (hydrodynamic size, PDI, zeta potential); format: physicochemical; details: 100 µM in ultrapure water, 25 °C, repeated three times
Method: (§1) Dynamic light scattering (DLS) of Zetasizer Nano ZSP (Malvern Instruments, Malvern, UK) apparatus was used to determine the hydrodynamic size and zeta potential of LVTX-9 and LVTX-9-C18. The peptides concentrations were diluted to 100 µM with ultrapure water with a final volume of 1 mL. The procedure ran at 25 °C, with each experiment repeated three times. The secondary structures of LVTX-9 and LVTX-9-C18 were determined to be in line with the previous protocol. The peptide concentrations were then diluted to 100 µM with ultrapure water and 100 mM of SDS was added in a final volume of 250 μL. The procedure was carried out at 25 °C. CD spectra were recorded between 180 nm and 280 nm on a Jasco J-815 CD spectrometer.

B16-F10 cells [4] = test: Scanning electron microscopy of cell membrane; format: cell-based, mouse; details: 5 μM, 24 h
Method: The morphologic changes of the cell membrane of B16-F10 cells treated with peptides were observed by SEM [14]. The cells were seeded on coverslips and placed into a six-well plate, then treated with LVTX-9 (50 μM) and LVTX-9-C18 (5 μM) for 24 h. After incubation, the B16-F10 cells were washed with sterile PBS gently three times and fixed with 2 mL of 2.5% glutaraldehyde solution in each well for 4 h at room temperature. Then, the fixed cells were dehydrated with a series of ethanol concentrations. We dried the samples with a Critical Point Dryer and coated them with gold plating before observation. A scanning electron microscope (Hitachi Su8010, Tokyo, Japan) was used to examine the prepared samples.

B16-F10 cells [5] = test: LDH leakage assay; format: cell-based, mouse; details: 12.5 μM, 24 h, absorbance 490 nm, n = 3
Method: At first, the B16-F10 cells were cultured in 96-well plates for 24 h at approximately 2 × 10^3 cells/well. Subsequently, the cells were treated for 24 h with LVTX-9 or LVTX-9-C18 with a series of concentration gradients. LDH leakage detection was detected using an LDH Cytotoxicity Assay Kit according to the manufacturer’s instructions (Beyotime, Shanghai, China. C0017). The absorption was measured using an Absorbance Microplate Reader (BioTek Instruments) at 490 nm. The LDH release (%) of peptides was calculated by GraphPad prism 5.0.

[6] = Circular dichroism secondary structure; format: physicochemical; details: 100 µM, 25 °C, 180-280 nm
Method: as §1

B16-F10 cells [7] = test: Colony formation assay; format: cell-based, mouse; details: 1 μM, 7 days, crystal violet, mean ± SD, n = 3, control group 51 ± 12.0, p = 0.0198 vs control
Method: To detect the proliferation of B16-F10 cells treated with LVTX-9 and LVTX-9-C18 at low concentrations, digested cells were counted using a Cellometer K2 and seeded into a 12-well plate with approximately 100 cells per well. After 36 h, cells were treated with LVTX-9 (10 μM) and LVTX-9-C18 (1 μM), then incubated for 7 days at 37 °C in a humidified 5% CO2 atmosphere. Visible colonies were stained with 0.5% crystal violet and photographically recorded. The colony formation rates were calculated, and curves were manufactured by GraphPad prism 5.0.

B16-F10 cells [8] = test: CCK-8 cell viability assay, B16-F10 cells; format: cell-based, mouse; details: 1 μM
Method: Mouse skin melanoma cells (B16-F10) were cultured in RPMI-1640 (Gibco), and mouse fibroblast cells (L-929), human lung carcinoma cells (A549), mouse breast cells (4T1), human hepatocarcinoma cells (HepG2), and human cervical carcinoma cells (Hela) were cultured in Dulbecco’s Modified Eagle Medium (DMEM, Gibco). All culture medium contained 10% fetal bovine serum (serum, Gibco), 100 U/mL of penicillin, and […] of streptomycin at 37 °C with 5% CO2.
Cell viability was quantified using a CCK-8 assay. At first, cells were seeded into a 96-well plate at approximately 2 × 10^3 cells/well. The following day, we created a 2-fold dilution series of each peptide using fresh medium (with or without 10% serum) for the treated cells, and cell viability was detected at 450 nm via a CCK-8 assay using an Absorbance Microplate Reader (BioTek Instruments, Winooski, VT, USA) following 24 h of drug incubation. The activity curves and IC50 values of the peptides were visualized using GraphPad prism 5.0.

For CCCCCCCCCCCCCCCC(=O)N[C@@H](C)C(=O)N[C@@H](CO)C(=O)N[C@H](C(=O)NCC(=O)N[C@@H](C)C(=O)N[C@@H](CC(C)C)C(=O)N[C@H](C(=O)N[C@@H](CCC(N)=O)C(=O)N[C@@H](CCCCN)C(=O)N[C@@H](C)C(=O)N[C@H](C(=O)N[C@@H](C)C(=O)N[C@@H](CC(C)C)C(=O)N[C@H](C(=O)N[C@@H](CCCCN)C(=O)N[C@@H](C)C(=O)N[C@@H](CCCCN)C(=O)N[C@@H](C)C(=O)N[C@@H](C)C(N)=O)[C@@H](C)CC)[C@@H](C)CC)[C@@H](C)CC)[C@@H](C)CC [LVTX-9-C16] (Palmitoyl-ASIGALIQKAIALIKAKAA-NH2), the “TR (retention time, RP-HPLC; indicates the hydrophobicity of the peptides)” value [1] was 40.21 min.
For CCCCCCCCCCCCCCCCCCCC(=O)N[C@@H](C)C(=O)N[C@@H](CO)C(=O)N[C@H](C(=O)NCC(=O)N[C@@H](C)C(=O)N[C@@H](CC(C)C)C(=O)N[C@H](C(=O)N[C@@H](CCC(N)=O)C(=O)N[C@@H](CCCCN)C(=O)N[C@@H](C)C(=O)N[C@H](C(=O)N[C@@H](C)C(=O)N[C@@H](CC(C)C)C(=O)N[C@H](C(=O)N[C@@H](CCCCN)C(=O)N[C@@H](C)C(=O)N[C@@H](CCCCN)C(=O)N[C@@H](C)C(=O)N[C@@H](C)C(N)=O)[C@@H](C)CC)[C@@H](C)CC)[C@@H](C)CC)[C@@H](C)CC [LVTX-9-C20] (Arachidoyl-ASIGALIQKAIALIKAKAA-NH2), the “TR (retention time, RP-HPLC; indicates the hydrophobicity of the peptides)” value [1] was 43.06 min.
With CCCCCCCCCCCCCC(=O)N[C@@H](C)C(=O)N[C@@H](CO)C(=O)N[C@H](C(=O)NCC(=O)N[C@@H](C)C(=O)N[C@@H](CC(C)C)C(=O)N[C@H](C(=O)N[C@@H](CCC(N)=O)C(=O)N[C@@H](CCCCN)C(=O)N[C@@H](C)C(=O)N[C@H](C(=O)N[C@@H](C)C(=O)N[C@@H](CC(C)C)C(=O)N[C@H](C(=O)N[C@@H](CCCCN)C(=O)N[C@@H](C)C(=O)N[C@@H](CCCCN)C(=O)N[C@@H](C)C(=O)N[C@@H](C)C(N)=O)[C@@H](C)CC)[C@@H](C)CC)[C@@H](C)CC)[C@@H](C)CC [LVTX-9-C14] (Myristoyl-ASIGALIQKAIALIKAKAA-NH2) the “TR (retention time, RP-HPLC; indicates the hydrophobicity of the peptides)” value [1] was 36.15 min.
With CCCCCCCCCCCCCCCCCC(=O)N[C@@H](C)C(=O)N[C@@H](CO)C(=O)N[C@H](C(=O)NCC(=O)N[C@@H](C)C(=O)N[C@@H](CC(C)C)C(=O)N[C@H](C(=O)N[C@@H](CCC(N)=O)C(=O)N[C@@H](CCCCN)C(=O)N[C@@H](C)C(=O)N[C@H](C(=O)N[C@@H](C)C(=O)N[C@@H](CC(C)C)C(=O)N[C@H](C(=O)N[C@@H](CCCCN)C(=O)N[C@@H](C)C(=O)N[C@@H](CCCCN)C(=O)N[C@@H](C)C(=O)N[C@@H](C)C(N)=O)[C@@H](C)CC)[C@@H](C)CC)[C@@H](C)CC)[C@@H](C)CC [LVTX-9-C18] (Stearoyl-ASIGALIQKAIALIKAKAA-NH2) the “cell viability of B16-F10 tumor spheroids at 20 μM” value (B16-F10 tumor spheroids; CellTiter-Glo 3D Cell Viability Assay, n = 4, p < 0.0001) was “notably reduced the cell viability”, the “growth (volume) of B16-F10 tumor spheroids at 20 μM” value (B16-F10 tumor spheroids; RPMI-1640 with 10% serum, p = 0.0072) was “significantly suppressed” and the “trypan blue staining at 5 μM” value (B16-F10 cells [2]) was “stained blue”. The “TR (retention time, RP-HPLC; indicates the hydrophobicity of the peptides)” value [1] was 41.89 min, the “PDI (hydrodynamic size, DLS)” value [3] was 0.64 ± 0.1369 and the zeta potential ([3]; p = 0.0084) was “significantly higher than that of LVTX-9”. The “cell membrane morphology by SEM at 5 μM” value (B16-F10 cells [4]) was “totally disorganized or even absent”, the “LDH release at 12.5 μM” value (B16-F10 cells [5]) was ~ 40% and the “secondary structure (CD) in 100 mM of SDS” value ([6]; 100 mM SDS) was “α-helical conformation”. The “secondary structure (CD) in ultrapure water” value ([6]; ultrapure water) was “α-helical conformation”, the “colony number at 1 μM” value (B16-F10 cells [7]) was 26 ± 2.9 and the “cytotoxic effect on B16-F10 cells at 1 μM” value (B16-F10 cells [8]) was “no significant cytotoxic effect”.
With CCCCCCCCCCCC(=O)N[C@@H](C)C(=O)N[C@@H](CO)C(=O)N[C@H](C(=O)NCC(=O)N[C@@H](C)C(=O)N[C@@H](CC(C)C)C(=O)N[C@H](C(=O)N[C@@H](CCC(N)=O)C(=O)N[C@@H](CCCCN)C(=O)N[C@@H](C)C(=O)N[C@H](C(=O)N[C@@H](C)C(=O)N[C@@H](CC(C)C)C(=O)N[C@H](C(=O)N[C@@H](CCCCN)C(=O)N[C@@H](C)C(=O)N[C@@H](CCCCN)C(=O)N[C@@H](C)C(=O)N[C@@H](C)C(N)=O)[C@@H](C)CC)[C@@H](C)CC)[C@@H](C)CC)[C@@H](C)CC [LVTX-9-C12] (Lauroyl-ASIGALIQKAIALIKAKAA-NH2) the “TR (retention time, RP-HPLC; indicates the hydrophobicity of the peptides)” value [1] was 36.52 min.
